From the supplement of paper PMC10307832

Columns and labels:
Assay in all cases: relative viability (nuclei count vs DMSO), 5 days (fraction); higher = more cells survive
Dabrafenib + Decitabine = compound: CC(C)(C)c1nc(-c2cccc(NS(=O)(=O)c3c(F)cccc3F)c2F)c(-c2ccnc(N)n2)s1 [Dabrafenib] + Nc1ncn([C@H]2C[C@H](O)[C@@H](CO)O2)c(=O)n1 [Decitabine] (partner 2 µM)
Method in brief: (§1)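 Nuclei were stained with Hoechst during a one-step fixation (final 0.05% Triton X-100, 1% formaldehyde, 1 ug/ml Hoechst) carried out 5 days after dosing, then counted on 4× images. The cells, lung cancer lines in 1536-well plates, had been dosed by pin tool the day after seeding with one drug alone or a fixed anchor-drug dose plus five library-drug doses (not always all listed) in √10 steps. Relative viability is the nuclei count in treated wells divided by that in vehicle wells, and each value is the median of duplicate plates.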

Dabrafenib + Trametinib = compound: CC(C)(C)c1nc(-c2cccc(NS(=O)(=O)c3c(F)cccc3F)c2F)c(-c2ccnc(N)n2)s1 [Dabrafenib] + CC(=O)Nc1cccc(-n2c(=O)n(C3CC3)c(=O)c3c(Nc4ccc(I)cc4F)n(C)c(=O)c(C)c32)c1 [Trametinib] (partner 0.02 µM)
Method in brief: as §1

Dabrafenib + Phenformin = compound: CC(C)(C)c1nc(-c2cccc(NS(=O)(=O)c3c(F)cccc3F)c2F)c(-c2ccnc(N)n2)s1 [Dabrafenib] + N=C(N)NC(=N)NCCc1ccccc1 [Phenformin] (partner 250 µM)
Method in brief: as §1

VX-702 + Navitoclax = compound: NC(=O)c1ccc(N(C(N)=O)c2c(F)cccc2F)nc1-c1ccc(F)cc1F [VX-702] + CC1(C)CCC(c2ccc(Cl)cc2)=C(CN2CCN(c3ccc(C(=O)NS(=O)(=O)c4ccc(N[C@H](CCN5CCOCC5)CSc5ccccc5)c(S(=O)(=O)C(F)(F)F)c4)cc3)CC2)C1 [Navitoclax] (partner 0.5 µM)
Method in brief: as §1

Cell Line	relative viability (Dabrafenib + Decitabine; first compound 0.009487 µM)	relative viability (Dabrafenib + Decitabine; first compound 0.03 µM)	relative viability (Dabrafenib + Decitabine; first compound 0.09487 µM)	relative viability (Dabrafenib + Decitabine; first compound 0.3 µM)	relative viability (Dabrafenib + Trametinib; first compound 0.009487 µM)	relative viability (Dabrafenib + Trametinib; first compound 0.03 µM)	relative viability (Dabrafenib + Trametinib; first compound 0.09487 µM)	relative viability (Dabrafenib + Trametinib; first compound 0.3 µM)	relative viability (Dabrafenib + Phenformin; first compound 0.003 µM)	relative viability (Dabrafenib + Phenformin; first compound 0.009487 µM)	relative viability (Dabrafenib + Phenformin; first compound 0.03 µM)	relative viability (Dabrafenib + Phenformin; first compound 0.09487 µM)	relative viability (Dabrafenib + Phenformin; first compound 0.3 µM)	relative viability (VX-702 + Navitoclax; first compound 0.02 µM)	relative viability (VX-702 + Navitoclax; first compound 0.2 µM)	relative viability (VX-702 + Navitoclax; first compound 0.6325 µM)	relative viability (VX-702 + Navitoclax; first compound 2 µM)	relative viability (Dabrafenib + Decitabine; first compound 0.003 µM)	relative viability (Dabrafenib + Trametinib; first compound 0.003 µM)
LOU-NH91	0.868	0.845	0.838	0.861	0.774	0.792	0.782	0.837	0.417	0.808	0.645	0.707	0.92	0.638	0.638	0.643	0.422		
LU99A	0.954	0.708	0.85	0.907	0.384	0.508	0.529	0.574	0.907	0.883	0.887	0.862	0.671	0.857	0.878	0.813	0.698	0.965	0.453
LXF-289	0.353	0.372	0.397	0.351	0.653	0.711	0.672	0.733	0.364	0.511	0.487	0.493	0.542	1	0.957	0.935	0.961	0.353	0.677
NCI-H23	0.343	0.352	0.333	0.32	0.425	0.364	0.34	0.508		0.816	0.762	0.51	0.687	0.701	0.798	0.805	0.933		
NCI-H322M	0.72		0.656	0.737	0.492		0.53	0.532		0.86	0.579	0.744	0.502	1.2	1.02	1.19	1.28		
NCI-H441	0.253	0.279	0.247	0.203	0.53	0.54	0.681	0.829		1.04	1	0.548	0.563	0.705	0.632	0.511	0.871		
NCI-H460	0.486	0.457	0.463	0.129	0.171	0.115	0.317	0.341	0.523	0.533	0.52	0.497	0.46	1.15	1.03	1.08	1.37	0.588	0.144
NCI-H520	0.515	0.392	0.459	0.342	0.653	0.541	0.627	0.628	0.431	0.638	0.289	0.442	0.612	1	0.985	0.953	1.1	0.583	0.665
NCI-H596	1.1	0.821	1.02	0.88	0.84	0.707	0.747	0.704		1.11	0.65	0.687	0.748	0.959	0.946	0.881	0.994		
NCI-H647	0.366	0.308	0.358	0.234	0.394	0.306	0.579	0.553	0.129	0.521	0.418	0.486	0.458	1.1	1.02	1.02	1.23	0.445	0.42
NCI-H727	0.8		0.877	0.818	0.353		0.417	0.354		0.425	0.515		0.595	0.439	0.508	0.498	0.445	0.53	0.355
NCI-H838	0.466	0.497	0.428	0.335	0.614	0.428	0.429	0.506	0.564	0.648	0.451	0.566	0.625	1.25	1.13	1.19	1.36	0.436	0.51
NCI-H1355	0.331	0.381	0.37	0.317	0.509	0.456	0.471	0.535		0.487	0.414	0.4	0.459	0.988	0.819	0.902	1.01		
NCI-H1395	0.726	0.738	0.696	0.66	1.18	0.988	0.889	0.984	0.325	0.462	0.447	0.403	0.437	1.48	1.05	1.02	1.37		
NCI-H1437	0.55	0.626	0.513	0.43	0.502	0.688	0.579	0.73	0.2	0.3	0.259	0.3	0.4	1.07	1.08	1.23	1.29	0.582	0.522
NCI-H1650	0.389	0.395	0.387	0.329	0.609	0.552	0.666	0.673	0.347	0.424	0.457	0.495	0.631	1.1	1.16	1.43	1.31	0.415	0.671
NCI-H1651	0.679	0.618	0.512	0.243	0.843	0.823	0.861	0.814	0.35	0.352	0.293	0.353	0.347	0.933	0.96	0.982	1.27	0.603	0.85
NCI-H1666	0.813	0.789	0.674	0.751	0.782	0.837	0.832	0.885	0.483	0.554	0.576	0.583	0.68	0.883	0.884	0.843	1.02	0.69	0.818
NCI-H1734	0.456	0.471	0.488	0.337	0.718	0.627	0.721	0.727		0.302	0.388	0.389	0.362	0.814	0.695	0.685	0.743		
NCI-H1755	0.706	0.667	0.722	0.583	0.733	0.758	0.75	0.749	0.565	0.627	0.544	0.591	0.629	1.08	0.971	1.05	1.04	0.654	0.779
NCI-H1792	0.651	0.557	0.566	0.287	0.484	0.405	0.439	0.474		0.485	0.198	0.34	0.202	0.718	0.621	0.695	0.753		
NCI-H1793	0.531		0.521	0.418	0.416		0.451	0.412		0.398			0.39	0.601	0.405	0.497	0.542		
NCI-H1915	0.262	0.256	0.255	0.243	0.249	0.264	0.288	0.313	0.392	0.402	0.266	0.29	0.272	0.766	0.725	0.849	0.916	0.264	0.295
NCI-H1944	0.46	0.436	0.467	0.364	0.426	0.403	0.401	0.404	0.182	0.199	0.188	0.222	0.208	1.04	1.03	1.15	0.973	0.45	0.409
NCI-H1975	0.413	0.355	0.4	0.312	0.316	0.317	0.321	0.367	0.227	0.411	0.411	0.356	0.363	1.09	1.06	1.08	1.23	0.373	0.214
NCI-H1993	0.719	0.538	0.68	0.618	0.474	0.508	0.687	0.621	0.33	0.536	0.482	0.446	0.513	0.805	0.874	0.896	0.835	0.564	0.53
NCI-H2009	0.38	0.397	0.339	0.358	0.266	0.312	0.354	0.399	0.412	0.426	0.341	0.312	0.268	1.18	1.2	1.25	1.47	0.359	0.262
NCI-H2023	0.222	0.196	0.214	0.135	0.547	0.55	0.581	0.663	0.4	0.406	0.419	0.423	0.443	1.02	1.01	0.89	1.03	0.236	0.533
NCI-H2085	0.575	0.559	0.592	0.518	0.583	0.46	0.589	0.633	0.482	0.809	0.592	0.596	0.714	1.21	1.24	1.12	1.2	0.552	0.523
NCI-H2087	0.305	0.352	0.278	0.213	0.18	0.234	0.209	0.181		0.527	0.597	0.395	0.391	0.975	0.838	0.92	1.05		
